# Measurements as given in US9107964B2, “Radioactive fluorine-labeled compound” (NIHON MEDI-PHYSICS CO., LTD., priority 2011, dated 2015).
# Columns and labels:
# [1] = tested on: mouse-derived breast cancer cell line (EMT6) tumor-bearing model mice; test: Measurement of SUV within tumor and calculation of tumor/normal tissue ratio (Example 11); conditions: 60 minutes after administration
# Protocol: The tumor-bearing model mouse thus prepared was placed under isoflurane anesthesia, and about 20 MBq of these sample solutions was administered via a tail vein. static imaging was carried out using a PET system for animals (model: eXplore Vista, manufactured by GE) at 60 minutes after administration. […] Data thus collected were reconstituted by the OSEM method to thus form an image, and a coronal tomographic image and an axial tomographic image were formed using image analysis software.
# The maximum value for SUV within the tumor was measured using the axial tomographic images acquired in the Example 10. For all slice planes of an axial tomographic image where the tumor was visualized, a region of interest (hereinafter, called an ROI) was set for the entire tumor and measured. The axial tomographic image was formed from 61 slice planes, and the SUV that was the highest among the measured slice planes was defined as a maximum value for SUV 60 minutes after administration (SUV maximum value in tumor). […] The average value for signal intensity within the ROI was determined, and the average value for values measured for the slice planes was defined as the average value for SUV in normal tissue. The tumor/normal tissue ratio was calculated using the following equation (1) and used as a […] indicator with respect to contrast between the tumor and normal tissue.
# [2] = tested on: hypoxic region of EMT6 tumor (pimonidazole-positive site); test: Localization of accumulation within tumor by autoradiography versus pimonidazole immunohistochemical staining; assay type: in vivo, mouse (Balb/c nu/nu); conditions: autoradiography and immunohistochemical staining of the same tumor section
# Protocol: In order to evaluate whether or not the compound related to the present invention could visualize a hypoxic region of a tumor, the following experiment was carried out using compounds 1 to 3 and [^18F]FMISO.
# Localization of accumulation of each of the labeled compounds within a tumor was confirmed by autoradiography. After PET imaging of a tumor-bearing model mouse prepared by the method of […] was completed, it was sacrificed by blood-letting by cardiocentesis, immediately thereafter the tumor was sampled, and tissue sections (thickness: 10 μm) were prepared using a cryostat (model: CM3050, manufactured by Leica). […] After exposing an imaging plate to this tumor tissue section for 8 to 10 hours, an image was captured using a bioimaging analyzer (model: BAS-2500, manufactured by FUJIFILM). The image thus captured was subjected to image analysis using image analysis software.
# Separately, as a method for confirming a hypoxic region within a tumor, the same section after decay of radioactivity was subjected to immunohistochemical staining using pimonidazole that is a hypoxic marker, by the following procedure. […]
# [3] = tested on: hypoxic region of EMT6 tumor (pimonidazole-positive area); test: Correlation between autoradiographic signal intensity (PSL value) and pimonidazole-positive area (Example 13); assay type: in vivo, mouse (Balb/c nu/nu); conditions: tumor tissue sections after PET imaging
# Protocol: In order to evaluate whether or not the compound related to the present invention can quantitatively visualize a hypoxic region of a tumor, the following experiment was carried out using compounds 1 to 3 and [^18F]FMISO.
# Using a microscope system (model: BZ-9000, Keyence Corporation) a high magnification image of a pimonidazole-positive site was acquired using the entire image of a pathology image obtained by immunohistochemical staining in the Example 12 and a 10× objective lens. The high magnification image was formed with respect to a randomly selected image region. At the same time the image acquisition site was recorded as a navigation image by use of the navigation function of the microscope system. The acquired high magnification image was subjected to image processing, and a pimonidazole-positive area present in the high magnification image was determined.
# The autoradiographic image and the stained image of each labeled compound used were those acquired in the Example 12. The resolution of the navigation image was made to match the resolution of the autoradiographic image, and the geometrical positions of two images were aligned using image analysis software.
# In the autoradiographic image, an ROI was set for the site that coincided with the high magnification image acquisition site, and the PSL value (Photo-Stimulated Luminescence value) of the ROI was determined. Furthermore, an ROI was set for a site of the same image that contained no sample, and the PSL value thereof was defined as the background. The PSL value of the background was subtracted from the PSL value of the high magnification image acquisition site to obtain the net PSL value. The hypoxic marker pimonidazole-positive area was plotted on the abscissa and the PSL value in the autoradiographic image on the ordinate, and the correlation factor was determined. This series of operations was carried out for each of the labeled compounds.
# [4] = tested on: EMT6 tumor-bearing model mice; test: Biodistribution in tumor and organs of tumor-bearing mouse (Example 14); assay type: in vivo, mouse (Balb/c nu/nu); conditions: mean
# Protocol: The biodistribution of compounds 1 to 3 and [^18F]FMISO in a tumor and each of the organs of a tumor-bearing mouse was measured.
# Tumor-bearing model mice used in this experiment were the same as those prepared in Example 10, and 3 or 4 cases that had attained a tumor volume of 200 to 400 mm^3 were selected from each group. The tumor-bearing model mouse was placed under isoflurane anesthesia, pimonidazole that is a hypoxic marker, was administered via a tail vein, and at 10 minutes thereafter, the respective labeled compound was administered. The tumor-bearing model mouse was sacrificed at 60 minutes and 120 minutes after administration. All of the tumor-bearing model mice were sacrificed by blood-letting from the abdominal aorta or by cardiocentesis, and dissection was carried out immediately thereafter. Other than the tumor, the blood, heart, lung, stomach, liver, gallbladder, kidney, small intestine and large intestine, muscle, and urine were sampled, and the other tissues were defined as the remaining whole body. After the weight of each tissue sampled was measured, the amount of radioactivity of the tissue was measured using a gamma counter, and the biodistribution of each of the labeled compounds was compared by converting it into % ID/g (% injection dose/g organ) of each tissue.
# In order to examine a hypoxic state within the tumor, immunohistochemical staining of the sample tumor was carried out so as to ascertain whether or not the interior of the tumor was hypoxic. The sampled tumor was fixed using a 20% formalin buffer, and a paraffin block was prepared using an automatic paraffin-embedding apparatus (model: VIP-5-Jr-J0, Sakura Finetek). A slice (thickness: 3 μm) was prepared by means of a microtome (model: Tissue-Tek Feather Trustome, Sakura Finetek). Immunohistochemical staining was carried out by the same method as in Example 12.
# [5] = 60 minutes after administration
# [6] = 120 minutes after administration
structure (smiles),measurement,setting,value
"O=[N+]([O-])c1nccn1CC(O)C[18F] (centres unmarked) [[^18F]FMISO, [^18F]fluoromisonidazole, reference compound]",SUV maximum value (in tumor),"[1]; about 20 MBq via tail vein, axial PET image, ROI entire tumor",0.98
same,Tumor/normal tissue ratio,[1]; SUV maximum in tumor versus average SUV of left body side (lung and muscle),2.03
same,Coincidence of accumulation site with localization of pimonidazole (hypoxic marker),[2],did not visually coincide
same,Correlation coefficient (pimonidazole-positive area vs PSL value in autoradiographic image),[3],0.55
same,Blood,[4]; [5],4.45 % ID/g
same,Gall bladder,[4]; [5],12.92 % ID/g
same,Heart,[4]; [5],5.12 % ID/g
same,Kidney,[4]; [5],8.52 % ID/g
same,Large intestine,[4]; [5],13.76 % ID/g
same,Liver,[4]; [5],5.84 % ID/g
same,Lung,[4]; [5],4.41 % ID/g
same,Muscle,[4]; [5],3.80 % ID/g
same,Small intestine,[4]; [5],5.76 % ID/g
same,Stomach,[4]; [5],4.17 % ID/g
same,T/B (tumor/blood ratio),[4]; [5],1.06
same,T/M (tumor/muscle ratio),[4]; [5],1.24
same,Tumor,[4]; [5],4.71 % ID/g
same,Urine,[4]; [5],34.98 % ID
same,Blood,[4]; [6],2.26 % ID/g
same,Gall bladder,[4]; [6],43.43 % ID/g
same,Heart,[4]; [6],3.33 % ID/g
same,Kidney,[4]; [6],3.89 % ID/g
same,Large intestine,[4]; [6],21.16 % ID/g
same,Liver,[4]; [6],3.85 % ID/g
same,Lung,[4]; [6],2.69 % ID/g
same,Muscle,[4]; [6],2.29 % ID/g
same,Small intestine,[4]; [6],4.63 % ID/g
same,Stomach,[4]; [6],1.85 % ID/g
same,T/B (tumor/blood ratio),[4]; [6],1.91
same,T/M (tumor/muscle ratio),[4]; [6],1.88
same,Tumor,[4]; [6],4.28 % ID/g
same,Urine,[4]; [6],41.45 % ID
